Where two headings read alike, the source gives them in different places.
Columns and labels:
[1] = Stability of Ru(III) complexes in phosphate buffer by UV-vis spectrophotometry; assay type: physicochemical; conditions: 20 mM phosphate buffer pH 7.4, 100 mM NaCl, 37 °C
Procedure: The stability of Ru(III) complexes (15–20) was investigated in a solution resembling physiological conditions (20 mM of phosphate buffer, pH 7.4, and 100 mM of NaCl at 37 °C) by UV-vis spectrophotometry (Table 1). The half-transformation time t1/2 was calculated based on changes in the electronic absorption spectrum (Figure S1) and defined as the value of t at the Alin/2 point. ΔA(t) was plotted against λmax; the initial section was approximated as a linear function.
The stability of Ru(III) complexes was studied by electron absorption spectroscopy in 20 mM of phosphate buffer, pH 7.4, and 100 mM of NaCl. The working solution (2 mL, 200 μM complex) was prepared by diluting 10 μL of the original 40 mM solution in DMSO and 1.99 mL of phosphate buffer. UV-vis spectra were recorded every 60 s in the range of 280–600 nm at 37 °C. The half-transformation time was t1/2. For λmax, ΔA(t) was plotted, where ΔA = A0–Ai, an initial section, was approximated as a linear function. At ΔAline./2 point calculated as t = t1/2.

[2] = target: T1, TrxR1 in rat liver extracts (Rattus norvegicus, UniProt O89049); test: Inhibition of TrxR1 in rat liver extracts; assay type: biochemical; conditions: for mechanism of inhibition: efficacy independent of DTNB concentration; for Ki: estimated according to the Cheng–Prusoff equation, read-out: Ki (inhibition constant); for IC50: rat liver extracts, read-out: TrxR1 IC50, µM (95% C.I.)
T1 construct: measured in the extracts from the liver of male white outbred rats; from tissue; host or cells: liver of male white outbred rats (homogenate supernatant)
T1 sequence (O89049 1-499): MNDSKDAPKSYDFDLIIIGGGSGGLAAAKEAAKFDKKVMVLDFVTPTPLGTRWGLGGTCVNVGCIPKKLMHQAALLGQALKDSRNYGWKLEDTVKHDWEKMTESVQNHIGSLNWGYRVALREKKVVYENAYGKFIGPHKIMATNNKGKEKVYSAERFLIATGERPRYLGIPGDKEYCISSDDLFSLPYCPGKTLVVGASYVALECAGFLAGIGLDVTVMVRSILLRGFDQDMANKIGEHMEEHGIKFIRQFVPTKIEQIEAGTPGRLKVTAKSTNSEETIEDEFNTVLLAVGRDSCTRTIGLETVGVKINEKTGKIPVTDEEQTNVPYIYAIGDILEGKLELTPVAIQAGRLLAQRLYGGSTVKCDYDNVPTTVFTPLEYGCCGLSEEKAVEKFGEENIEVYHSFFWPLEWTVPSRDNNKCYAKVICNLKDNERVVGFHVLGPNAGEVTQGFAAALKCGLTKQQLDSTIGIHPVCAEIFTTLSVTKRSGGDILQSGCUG
Procedure: The TrxR1 enzyme was measured in the extracts from the liver of male white outbred rats homogenised in 50 mM of PBS containing 1 mM of EDTA and centrifuged for 15 min at 10,000 rpm at 4 °C. The supernatant was adjusted to 7.5 µg/mL of protein as determined with pyrogallol red. Then, 40 μL of the enzyme solution was mixed with 10 μL of the test compounds in a 96-well clear flat bottom plate. After 10 min at 25 °C, 30 μL of PBS containing 0.7 mg/mL of BSA and 0.8 mM of NADPH was added. After 15 min at 25 °C, 20 µL of DTNB solution was added to the desired final concentrations. Kinetic studies were carried out by assaying TrxR1 at various concentrations of DTNB. The optical density of the samples was measured with an Infinite M200 Pro reader (Tecan, Grödig, Austria) at 412 nm every 30 s for 20 min. The activity of TrxR1 was calculated as a reaction slope relative to the control wells using Prism 8.0 (GraphPad, Inc., San Diego, CA, USA).

[3] = tested on: HCT116 cells; test: Annexin V/7-AAD flow cytometry (Muse Annexin V & Dead Cell Kit); assay type: cell-based; conditions: HCT116, 24 h; for Annexin V-positive cells: 2xIC50 (50 µM of 16, 20 µM of 20); for early apoptosis (Annexin V/7-AAD) / late apoptosis (Annexin V/7-AAD) / live cells (Annexin V/7-AAD) / necrosis (Annexin V/7-AAD): 2xIC50, one representative experiment
Procedure: Mechanisms of cell death, that is, Annexin V/7-AAD reactivity and caspase 3/7 activation, were determined for 16 and 20 in HCT116 cells using the Muse® Annexin V & Dead Cell Kit (Luminex corp., Austin, TX, USA) and flow cytometry. Cells were incubated with 16, 20, or cisplatin (reference drug) for 24 h at concentrations corresponding to 2xIC50 values (obtained in MTT assays; Table 4). The percentages of Annexin V-positive cells in response to 16 and 20 were higher than cisplatin (Figure 8). Complex 20 with the C12 linker induced Annexin V positivity slightly more efficiently than 16 with the C3 linker (27.4 ± 2.1% vs. 19.7 ± 0.6%).
The antiproliferative activity was studied by MTT assays as published previously. For flow cytometry studies, cells were plated into 6-well plates (Eppendorf, Germany; 4 × 10^5 cells in 2 mL of DMEM) and incubated for 24 h. Solutions of complexes in DMSO were prepared immediately prior to the day of the experiments. Cells were treated with either 20 µM of cisplatin, 50 µM of 16, or 20 µM of 20. Concentrations corresponded to two-fold IC50 values based on MTT assays. Cells were incubated for 24 h, pooled, washed with cold PBS, and resuspended in DMEM. Aliquots of cells were processed as recommended in the Muse Annexin V&Dead Cell Kit or Muse Caspase-3/7 Kit (Luminex). Measurements were carried out on a Muse Cell Analyser, Luminex corp., TX, USA.

[4] = Lipophilicity, shake-flask method water/n-octanol; assay type: physicochemical; conditions: UV-vis, mean ± SD
Procedure: The lipophilicity of complexes 15–20 was studied using a standard shake-flask method in a mixture of water/n-octanol. For the quantification of compounds in the water phase, UV-vis spectrophotometry was used. […] Among other complexes, as expected, 20 was the most lipophilic (Table 1).
N-octanol was saturated with water and with water saturated with n-octanol; mixture400 mL of n-octanol (water) and 100 mL of water (n-octanol) was stirred for 24 h; and then fractions were separated. The sample of the complex was dissolved in n-octanol and a series of solutions in octanol (300, 250, 3 × 200, 150, 100, and 50 μM) was prepared. Absorption spectra were recorded and the calibration curve for maximum absorption was plotted. From 200 μM solutions, the mixtures with water were prepared (1:1, 1:2, 2:1 v/v) and shaken for 15 min. The organic phase was separated by centrifugation. The concentration of the complex in n-octanol was determined from the calibration curve and lipophilicity (logP) was calculated as log P = log [(C0–Caq)/Caq].

Row | Substance | t1/2 (half-transformation time) ([1]; mean ± SD, three experiments) | mechanism of inhibition [2] | Ki [2] | IC50 ([2]; DTNB 0.06 mM) | IC50 ([2]; DTNB 0.1 mM) | IC50 ([2]; DTNB 2.5 mM) | Annexin V-positive cells [3] | early apoptosis (Annexin V/7-AAD) [3] | late apoptosis (Annexin V/7-AAD) [3] | live cells (Annexin V/7-AAD) [3] | necrosis (Annexin V/7-AAD) [3] | t1/2 (half-transformation time) [1] | Log P [4]
1 | Na[trans-Ru(DMSO)(C21H19Cl2N5O)Cl4] [Compound 16] | 330 ± 20 s | non-competitive | 30.7 µM | 24 µM | 33 µM | 33 µM | 19.7 ± 0.6% | 3% | 20% | 78% | 0% |  | 
2 | Na[trans-Ru(DMSO)(C30H37Cl2N5O)Cl4] [Compound 20] | 2150 ± 110 s | non-competitive | 15.3 µM | 17 µM | 15 µM | 15 µM | 27.4 ± 2.1% | 5% | 26% | 69% | 0% | ~ 35 min | 1.3 ± 0.2

From paper PMC8707700, “Ru(III) Complexes with Lonidamine-Modified Ligands” (International Journal of Molecular Sciences, 2021)
